From PMC11432405, “Development of Novel Alaninamide Derivatives with Anticonvulsant Activity and Favorable Safety Profiles in Animal Models” (International Journal of Molecular Sciences, 2024) come the findings set out here.

The term inhibition denotes the drop in the measured response relative to a control, in per cent. Broadly, the TD50 is the 50% point of the dose-response relation for the toxic effect studied. High values mean lower toxicity, low ones greater toxicity. The term ED50 denotes the dose at which the effect has come halfway, by size or by number of responders. A word on the melting point: it is the temperature, or range, at which the solid turns liquid.

Series [1] relates to 6 Hz (32 mA) seizures. Put plainly: 6 Hz (32 mA) psychomotor seizure model.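 As to all read-outs here: adult male albino Swiss CD-1 mice, each used once, with compounds suspended in 1% Tween 80 in water as vehicle.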 The note with it: for responders at 100 mg/kg / ED50: Mus musculus, ip; for responders at 100 mg/kg / ED50 / protection (efficacy) in the 6 Hz (32 mA) screening: 0.5 h; for responders at 100 mg/kg: read-out: protection (efficacy) in the 6 Hz (32 mA) screening; for ED50: read-out: ED50 6 Hz (32 mA), mice i.p., TPE 0.5 h, 95% confidence interval in parentheses; for protection (efficacy) in the 6 Hz (32 mA) screening / 6 Hz (32 mA) test: number of mice protected / number of mice tested: mice i.p.; for protection (efficacy) in the 6 Hz (32 mA) screening: 100 mg/kg, four mice; for 6 Hz (32 mA) test: number of mice protected / number of mice tested: dose of 100 mg/kg, pretreatment time 0.5 h.

The target of series [2] is T1, human recombinant MAO-B (Homo sapiens, UniProt P27338).
T1 construct: purchased Sigma Aldrich
T1 sequence (P27338 1-520): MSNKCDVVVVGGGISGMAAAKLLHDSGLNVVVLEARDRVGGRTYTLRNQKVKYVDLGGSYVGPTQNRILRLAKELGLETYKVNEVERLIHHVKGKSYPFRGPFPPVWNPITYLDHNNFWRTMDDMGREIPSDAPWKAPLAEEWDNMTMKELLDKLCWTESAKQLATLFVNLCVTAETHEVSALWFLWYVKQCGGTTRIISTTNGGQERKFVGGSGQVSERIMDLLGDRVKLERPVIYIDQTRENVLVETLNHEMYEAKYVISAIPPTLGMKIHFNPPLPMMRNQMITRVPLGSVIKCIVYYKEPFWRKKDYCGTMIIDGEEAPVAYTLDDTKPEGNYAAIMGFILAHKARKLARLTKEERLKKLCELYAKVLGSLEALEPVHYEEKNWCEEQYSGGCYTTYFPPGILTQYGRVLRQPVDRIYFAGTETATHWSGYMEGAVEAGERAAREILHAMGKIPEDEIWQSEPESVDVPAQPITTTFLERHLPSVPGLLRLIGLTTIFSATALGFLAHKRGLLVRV
In words: fluorometric monoamine oxidase B inhibition assay. The format is biochemical. The note with it: for inhibition at 1 µM: read-out: % inhibition MAO-B (1 µM), mean of two independent experiments; for % inhibition MAO-B (1 µM): mean of two independent experiments.

The test system of series [3] is maximal electroshock (MES) seizures. In words: maximal electroshock seizure (MES) test. Format: in vivo, mice. The note with it: mice i.p.; for responders at 100 mg/kg / ED50: Mus musculus, ip; for ED50: TPE 0.5 h, 95% confidence interval in parentheses. The source says: Epilepsy is a multifaceted disorder with often unclear etiology, making it challenging to pinpoint a specific receptor or transporter as the definitive target. Consequently, the discovery of ASMs deviates from the traditional drug development pathway, which typically involves designing a new molecule, docking it with a specific biological target, and performing chemical synthesis, followed by in vitro assays. Instead, numerous animal seizure models, which mirror various types of human epileptic seizures, are initially employed in the process of new ASM discovery. This approach has been instrumental in the identification and introduction into clinical practice of all currently used ASMs and continues to be a cornerstone in the preclinical development of new anticonvulsants. The primary justification for prioritizing in vivo screening over in vitro binding and functional studies is the complex and often not fully elucidated mechanisms of action of known ASMs. This approach also facilitates the discovery of compounds with novel, previously undefined pharmacodynamic properties. In light of this, we evaluated all compounds obtained in the current studies using the MES test, which remains one of the most valuable preclinical screening models for tonic-clonic seizures, as well as partial convulsions with or without secondary generalization in humans. This test allows for a comprehensive assessment of the anticonvulsant efficacy of new ASM candidates and is considered highly relevant for predicting their therapeutic efficacy in human epilepsy. The MES test was carried out in mice following the intraperitoneal (i.p.) administration of a screening dose of 100 mg/kg in a group consisting of four animals. The efficacy of the compounds synthesized was evaluated at 0.5 h pretreatment time.
Fresh solutions were prepared daily for each experimentation session.
Each group consisted of six animals.

Series [4] can be described thus: rotarod test (acute neurological toxicity, motor coordination). Format: in vivo. The following applies: male, CD-1 (albino Swiss), mouse, in vivo, ip, mice i.p. A general note: Falling from the rotarod earlier than controls is read as motor impairment.
Procedure: The protective indexes (PIs) were then calculated as the ratio of TD50 to ED50 (PI = TD50/ED50), providing an assessment of the therapeutic window for each compound.
[5] abbreviates: 100 mg/kg, 0.5 h, four mice, read-out: protection (efficacy) in the MES screening.
The mark [6] stands for this setting: dose of 100 mg/kg, pretreatment time 0.5 h, read-out: MES test: number of mice protected / number of mice tested (converted).
Setting [7] is: dose of 100 mg/kg, pretreatment time 0.5 h.

Like-named read-outs stand apart in the source and are kept apart here.

For the compound `Cc1cccc(COc2ccc(CNC(=O)C(C)N3C(=O)CCC3=O)cc2)c1` (stereo not shown) [Compound 19, 2-(2,5-dioxopyrrolidin-1-yl)-N-(4-((3-methylbenzyl)oxy)benzyl)propanamide], the responders at 100 mg/kg in series [1] is 25%; in series [3] (setting [5]), at most 25%; in series [3] (setting [6]), 25%. Also, in series [2], the inhibition at 1 µM is 0%.
With `Cc1ccccc1COc1ccc(CNC(=O)C(C)N2C(=O)CCC2=O)cc1` (stereo not shown) [Compound 18, 2-(2,5-dioxopyrrolidin-1-yl)-N-(4-((2-methylbenzyl)oxy)benzyl)propanamide], the melting point was 126.1 to 126.8 °C. In series [4], this compound registered a TD50 at 0.5 h above 300 mg/kg. Besides, in series [1], the ED50 was determined as 57.7 mg/kg and the responders at 100 mg/kg was 75%. Further, the inhibition at 1 µM in series [2] is 0%. Besides, the responders at 100 mg/kg in series [3] (setting [5]) is 75%. Moreover, the 50% effective dose (ED50) in series [3] worked out at 89.2 mg/kg. The responders at 100 mg/kg in series [3] (setting [6]) is 75%.
As for `CC(C(=O)NCc1ccc(OCc2ccc(F)cc2)cc1)N1C(=O)CCC1=O` (stereo not shown) [Compound 8, 2-(2,5-dioxopyrrolidin-1-yl)-N-(4-((4-fluorobenzyl)oxy)benzyl)propanamide], the “protection (efficacy) in the 6 Hz (32 mA) screening” value (“protection (efficacy) in the 6 Hz” for short) in series [1] was 50%. Besides, in series [2], the “% inhibition MAO-B (1 µM)” value turned out to be 0%. The “protection (efficacy) in the MES screening” value in series [3] (100 mg/kg, 0.5 h, four mice) amounted to 50%.
In the case of `CC(C(=O)NCc1ccc(OCc2ccccc2C(F)(F)F)cc1)N1CCCC1=O` (stereo not shown) [Compound 37, 2-(2-oxopyrrolidin-1-yl)-N-(4-((2-(trifluoromethyl)benzyl)oxy)benzyl)propanamide], the melting point is 121.8 to 122.5 °C. For the same compound, in series [1], the responders at 100 mg/kg was determined as 50%. Also, the inhibition at 1 µM in series [2] was found to be 0%. Besides, the responders at 100 mg/kg in series [3] (setting [6]) was 100%.
In the case of `CC(C(=O)NCc1ccc(OCc2ccccc2C(F)(F)F)cc1)N1C(=O)CCC1=O` (stereo not shown) [Compound 12, 2-(2,5-dioxopyrrolidin-1-yl)-N-(4-((2-(trifluoromethyl)benzyl)oxy)benzyl)propanamide], the melting point is 122.9 to 123.4 °C. For the same compound, the TD50 at 0.5 h in series [4] was above 300 mg/kg. For the same compound, in series [1], the ED50 was determined as 52.7 mg/kg and the responders at 100 mg/kg was determined as 75%. In addition, in series [2], the inhibition at 1 µM came out at 0%. Moreover, the responders at 100 mg/kg in series [3] (setting [5]) was 100%. In addition, the median effective dose (ED50) in series [3] was found to be 46.2 mg/kg. In series [3] (setting [6]), the responders at 100 mg/kg is 100%.
Consider `CC(C(=O)NCc1ccc(OCc2cccc(OC(F)(F)F)c2)cc1)N1C(=O)CCC1=O` (stereo not shown) [Compound 16, 2-(2,5-dioxopyrrolidin-1-yl)-N-(4-((3-(trifluoromethoxy)benzyl)oxy)benzyl)propanamide], for which the melting point lay within 112.2 to 112.9 °C. The compound also displayed a TD50 at 0.5 h in series [4] above 300 mg/kg. Besides, in series [1], the ED50 was 63 mg/kg and the responders at 100 mg/kg turned out to be 50%. The inhibition at 1 µM in series [2] came out at 31%. In addition, in series [3] (setting [5]), the responders at 100 mg/kg came out at 100%. Moreover, the ED50 in series [3] was found to be 40.5 mg/kg. Further, the responders at 100 mg/kg in series [3] (setting [6]) is 100%.
Take `Cc1ccc(COc2ccc(CNC(=O)C(C)N3C(=O)CCC3=O)cc2)cc1` (stereo not shown) [Compound 20, 2-(2,5-dioxopyrrolidin-1-yl)-N-(4-((4-methylbenzyl)oxy)benzyl)propanamide]: the inhibition at 1 µM in series [2] turned out to be 0%. The responders at 100 mg/kg in series [3] (setting [5]) is at most 25%; in series [3] (setting [6]), 0%.
As for `CC(C(=O)NCc1ccc(OCc2ccccc2OC(F)(F)F)cc1)N1C(=O)CCC1=O` (stereo not shown) [Compound 15, 2-(2,5-dioxopyrrolidin-1-yl)-N-(4-((2-(trifluoromethoxy)benzyl)oxy)benzyl)propanamide], the melting point lay within 110.5 to 111.2 °C. Also, in series [1], the responders at 100 mg/kg amounted to 25%. For the same compound, the inhibition at 1 µM in series [2] stood at 0%. Further, in series [3] (setting [5]), the responders at 100 mg/kg is 50%. In addition, in series [3] (setting [6]), the responders at 100 mg/kg was 50%.
For `CC(C(=O)NCc1ccc(OCc2ccc(Cl)cc2)cc1)N1C(=O)CCC1=O` (stereo not shown) [Compound 11, N-(4-((4-chlorobenzyl)oxy)benzyl)-2-(2,5-dioxopyrrolidin-1-yl)propanamide], in series [1], the “protection (efficacy) in the 6 Hz” value was 25% and the “6 Hz (32 mA) test: number of mice protected / number of mice tested” value is given as 1/4. The “% inhibition MAO-B (1 µM)” value in series [2] is reported as 0%. Also, the “protection (efficacy) in the MES screening” value in series [3] (100 mg/kg, 0.5 h, four mice) was at most 25%. Further, the “MES test: number of mice protected / number of mice tested” value in series [3] (setting [7]) is listed as 0/4.
With `CC(C(=O)NCc1cccc(OCc2ccccc2)c1)N1C(=O)CCC1=O` (stereo not shown) [Compound 22, N-(3-(benzyloxy)benzyl)-2-(2,5-dioxopyrrolidin-1-yl)propanamide], the melting point lay within 105.3 to 106.1 °C. For the same compound, the inhibition at 1 µM in series [2] worked out at 0%. Also, in series [3] (setting [5]), the responders at 100 mg/kg was at most 25%. The responders at 100 mg/kg in series [3] (setting [6]) was 25%.
Compound `CC(C(=O)NCc1ccc(OCc2cccc(C(F)(F)F)c2)cc1)N1C(=O)CCC1=O` (stereo not shown) [Compound 13, 2-(2,5-dioxopyrrolidin-1-yl)-N-(4-((3-(trifluoromethyl)benzyl)oxy)benzyl)propanamide] had a TD50 at 0.5 h in series [4] above 300 mg/kg. For the same compound, the ED50 was determined as 67.9 mg/kg in series [1] and 69.7 mg/kg in series [3]. Also, the responders at 100 mg/kg in series [1], in series [3] (setting [5]) and in series [3] (setting [6]) was 100% in each case. The inhibition at 1 µM in series [2] came to 0%.
Take `CC(C(=O)NCc1ccccc1OCc1ccccc1)N1C(=O)CCC1=O` (stereo not shown) [Compound 23, N-(2-(benzyloxy)benzyl)-2-(2,5-dioxopyrrolidin-1-yl)propanamide]: in series [2], the inhibition at 1 µM was 0%. The values for the responders at 100 mg/kg in series [3] (setting [5]) and in series [3] (setting [6]) were at most 25% and 25%, respectively.
For the compound `CC(C)(C(=O)NCc1ccc(OCc2ccccc2)cc1)N1C(=O)CCC1=O` [Compound 21, N-(4-(benzyloxy)benzyl)-2-(2,5-dioxopyrrolidin-1-yl)-2-methylpropanamide], the melting point was 170.3 to 171.2 °C. For the same compound, the inhibition at 1 µM in series [2] was 0%. Further, the responders at 100 mg/kg in series [3] (setting [5]) was at most 25%. In series [3] (setting [6]), the responders at 100 mg/kg was 25%.
`CC(C(=O)NCc1ccc(OCc2ccccc2)cc1)N1CCCC1=O` (stereo not shown) [Compound 36, N-(4-(benzyloxy)benzyl)-2-(2-oxopyrrolidin-1-yl)propanamide] gave a melting point of 110.5 to 110.9 °C. Further, in series [1], the responders at 100 mg/kg is 25%. Moreover, the inhibition at 1 µM in series [2] stood at 0%. In addition, in series [3] (setting [6]), the responders at 100 mg/kg was 100%.
For `CC(C(=O)NCc1ccc(OCc2ccccc2F)cc1)N1C(=O)CCC1=O` (stereo not shown) [Compound 6, 2-(2,5-dioxopyrrolidin-1-yl)-N-(4-((2-fluorobenzyl)oxy)benzyl)propanamide], in series [1], the “protection (efficacy) in the 6 Hz” value came to 100% and the “6 Hz (32 mA) test: number of mice protected / number of mice tested” value was 4/4. Besides, in series [2], the “% inhibition MAO-B (1 µM)” value was found to be 0%. Further, in series [3] (100 mg/kg, 0.5 h, four mice), the “protection (efficacy) in the MES screening” value came out at 100%. Further, in series [3] (setting [7]), the “MES test: number of mice protected / number of mice tested” value was 4/4.
As to `CC(C(=O)NCc1ccc(OCc2ccc(C(F)(F)F)cc2)cc1)N1C(=O)CCC1=O` (stereo not shown) [Compound 14, 2-(2,5-dioxopyrrolidin-1-yl)-N-(4-((4-(trifluoromethyl)benzyl)oxy)benzyl)propanamide], the responders at 100 mg/kg in series [1], in series [3] (setting [5]) and in series [3] (setting [6]) was 50% each time. The inhibition at 1 µM in series [2] is 0%.
